Reference: US20140031296A1, “NEW SYNTHETIC PEPTIDES AND THEIR USE” (PERGAMUM AB, priority 2011, published 2014)
“Also recorded” adds a separate entry of the source.

Key:
MRSA (CCUG 41879) [1] = assay: In vivo antimicrobial effect in excision wound model in rats; design: species or system rat; settings: peptide in H2O 0.1, 0.5 and 2 mg/ml, single administration, 2 hours
Excerpt: (§1) FIG. 4. Dose-response effect of peptide 232 (SEQ ID NO 78)(A) and peptide 220 (SEQ ID NO 67)(B) on bacterial colonization of infected excision wounds in rats. […] Results are presented as relative bacterial survival (%) compared to control group±SEM (n=15 wounds). Statistical significance was estimated by Student's t test. *=p<0.05, **=p<0.01, ***=p<0.001.
The in vivo antimicrobial effects of the peptide 232 (SEQ ID NO: 78), and the peptide 220 (SEQ ID NO:67) were investigated in an excision wound model in rats. The wounds were inoculated with methicillin resistant S. aureus (MRSA) for two hours, followed by a single administration of peptide or control (H2O) for two hours before termination and harvest of the bacteria.

S. aureus (CCUG 1800) = assay: Minimal microbicidal concentration (MMC99) assay, S. aureus; format: cell-based; settings: for MMC99: S. aureus, Example 3; for MMC99 μM in 1% BHI medium / MMC99 μM in 50% SWF: screen 2, 2 hours; for MMC99 μM in 50% SWF: 50% heat inactivated simulated wound fluid
Experimental: Antimicrobial Activity was Measured as Bactericidal Effect on S. aureus Using Minimal Microbicidal Concentration, MMC99, Assay)
S. aureus (#1800; CCUG, Gothenburg, Sweden) cultured on blood-agar plates [Columbia agar (Oxoid, Basingstoke, UK) supplemented with 5% defibrinated horse blood (National Veterinary Institute (SVA), Uppsala, Sweden)] were transferred to brain heart infusion broth (3.7% BHI; Difco, BD Diagnostics, Franklin Lakes, N.J., USA) and incubated in a shaker at 250 rpm+37° C. over night. The culture was thereafter be diluted 1:10 in fresh BHI broth and incubated for additional two hours to reach log-phase growth. The bacteria were pelleted and suspended in 1% BHI medium (BHI broth diluted 100 times in ultra-pure water) to a concentration of 10^7 bacteria/ml as estimated by measuring optical density at 600 nm. Peptides were serially diluted by two-fold steps from 160 μM to 1.25 μM in 1% BHI medium. The peptides (100 μl) were thereafter incubated with bacteria (5 μl á 10^7 bact./ml) for 2 hours at +37° C. Drops (5 μl) of the suspension were placed on blood agar plates. The blood agar plates were incubated over night at +37° C. The MMC99 values, i.e. the lowest peptide concentration needed to achieve a 99% reduction of viable bacteria, were recorded (Table 3). The concentration of the bacterial suspension used in the assay was confirmed by viable counts on blood agar plates.
S. aureus (#1800; CCUG, Gothenburg, Sweden) cultured on blood-agar plates [Columbia agar (Oxoid, Basingstoke, UK) supplemented with 5% defibrinated horse blood (National Veterinary Institute (SVA), Uppsala, Sweden)] were transferred to brain heart infusion broth (3.7% BHI; Difco, BD Diagnostics, Franklin Lakes, N.J., USA) and incubated in a shaker at 250 rpm+37° C. over night. The culture was thereafter be diluted 1:10 in fresh BHI broth and incubated for additional two hours to reach log-phase growth. The bacteria were pelleted and suspended in 1% BHI medium (BHI broth diluted 100 times in ultra-pure water) to a final concentration of 10^7 bacteria/ml as estimated by measuring optical density at 600 nm.
Peptides were serially diluted by two-fold steps from 400 μM to 0.78 μM in either 1% BHI medium or in 50% heat inactivated simulated wound fluid [SWF, containing 1 part 0.1% peptone (Oxoid, Basingstoke, UK) in saline and 1 part fetal bovine serum, diluted 2 times in ultra-pure water].
The peptides (100 μl) were thereafter incubated with bacteria (5 μl a 10^7 bact./ml) for 2 hours at +37° C. Drops (5 μl) of the suspension were placed on blood agar plates. The blood agar plates were incubated over night at +37° C. The MMC99 values, i.e. the lowest peptide concentration needed to achieve a 99% reduction of viable bacteria were recorded (Table 6). The concentration of the bacterial suspension used in the assay was confirmed by viable counts on blood agar plates.
(§2) The antimicrobial effects of the peptides 232 (SEQ ID NO: 78), and 220 (SEQ ID NO:67) were analysed by MMC99 (minimal microbicidal concentration) assay against S. aureus (CCUG 1800), MRSA (CCUG 41879), P. aeruginosa (ATCC 15442), E. coli (CCUG 31246), S. pyogenes (CCUG 4207), P. acnes (CCUG 1794T), S. epidermidis (ATCC12228), K. pneumoniae (ATCC 13883), A. baumannii (ATCC 19606), and C. albicans (ATCC 64549). The peptides were purchased from Biopeptide Company (San Diego, Calif., USA) and Bachem AG (Bubendorf, Switzerland) and results are presented in Table 8A and 8B respectively.
Peptides were serially diluted in two different assay medium, 1% BHI medium (brain-heart infusion medium) or 50% heat inactivated simulated wound fluid (SWF), and thereafter incubated with the microorganisms for 2 hours. Drops of the suspension were placed on blood agar plates. The MMC99 values, i.e. the lowest peptide concentration needed to achieve a 99% reduction of viable microorganisms, were recorded. As presented in Table 8, all the peptides have the ability to kill microorganisms frequently appearing in infections. […]

MRSA (CCUG 41879) [2] = assay: MMC99 assay, MRSA; format: cell-based
Experimental: as §2
(§3) Peptides were serially diluted in two different assay medium, 1% BHI medium (brain-heart infusion medium) or 50% heat inactivated simulated wound fluid (SWF), and thereafter incubated with the microorganisms for 2 hours. Drops of the suspension were placed on blood agar plates. The MMC99 values, i.e. the lowest peptide concentration needed to achieve a 99% reduction of viable microorganisms, were recorded. As presented in Table 8, all the peptides have the ability to kill microorganisms frequently appearing in infections.

S. pyogenes (CCUG 4207) = assay: MMC99 assay, S. pyogenes; format: cell-based
Experimental: as §2, §3

S. aureus = assay: Antimicrobial effect in infected wounds, ex vivo model on pig skin; settings: S. aureus in PBS/serum (50/50), peptide in H2O 0.1, 0.5 and 2 mg/ml, single administration, 4 hours
Excerpt: as §1, with “FIG. 5. Dose response” for “FIG. 4. Dose-response”, “effect of,” for “effect of”, “infected” for “infected excision”, “in pig skin.” for “in rats.”, “group±SEM (n=10” for “group±SEM (n=15”
The antimicrobial effects of the peptide 232 (SEQ ID NO: 78), and the peptide 220 (SEQ ID NO:67) were investigated in an ex vivo model on pig skin. The wounds were inoculated with S. aureus in the presence of PBS/Serum 50/50. Two hours after inoculation the wounds were treated with a single administration of the peptide or placebo (H2O). Four hours after the treatment bacteria were harvested and viable counts of each wound were determined.

In the case of RRLWRRWMRKVL [Peptide 232], the “bacterial colonization of infected excision wounds (bacterial counts vs control)” value (MRSA (CCUG 41879) [1]) was “significant reduction in bacterial counts; also recorded: pronounced antimicrobial effect”, the MMC99 (S. aureus (CCUG 1800); 1% BHI) was 5 µg/mL and the MMC99 (S. aureus (CCUG 1800); 50% SWF) was 44 µg/mL. For the same sequence, the “MMC99 μM in 1% BHI medium” value (S. aureus (CCUG 1800)) was 12.5 µM, the “MMC99 μM in 50% SWF” value (S. aureus (CCUG 1800)) was 25 µM and the MMC99 (MRSA (CCUG 41879) [2]; 1% BHI) was 6 µg/mL. The MMC99 (MRSA (CCUG 41879) [2]; 50% SWF) was 100 µg/mL, the MMC99 (S. pyogenes (CCUG 4207); 1% BHI) was <3 µg/mL and the MMC99 (S. pyogenes (CCUG 4207); 50% SWF) was >200 µg/mL. The “bacterial colonization of infected wounds in pig skin (bacterial counts vs control)” value (S. aureus) was “significant reduction in bacterial counts; also recorded: highly effective anti-infectious agents when applied locally”.
QSLARKLFQWLRNLRKVA [Peptide 220] was tested, and the “bacterial colonization of infected excision wounds (bacterial counts vs control)” value (MRSA (CCUG 41879) [1]) was “significant reduction in bacterial counts; also recorded: pronounced antimicrobial effect”, the MMC99 (S. aureus (CCUG 1800); 1% BHI) was 7 µg/mL and the MMC99 (S. aureus (CCUG 1800); 50% SWF) was 28 µg/mL. The “MMC99 μM in 1% BHI medium” value (S. aureus (CCUG 1800)) was 12.5 µM, the “MMC99 μM in 50% SWF” value (S. aureus (CCUG 1800)) was 25 µM and the MMC99 (MRSA (CCUG 41879) [2]; 1% BHI) was 6 µg/mL. For the same sequence, the MMC99 (MRSA (CCUG 41879) [2]; 50% SWF) was 200 µg/mL, the MMC99 (S. pyogenes (CCUG 4207); 1% BHI) was <3 µg/mL and the MMC99 (S. pyogenes (CCUG 4207); 50% SWF) was 50 µg/mL. The “bacterial colonization of infected wounds in pig skin (bacterial counts vs control)” value (S. aureus) was “significant reduction in bacterial counts; also recorded: highly effective anti-infectious agents when applied locally”.
